The subject of one assay is PKG-1α. Description: PKG-1α nitration (IP, 3-NT immunoblot) in transfected HEK-293T cells. The class given is cell-based, human. The conditions noted are these: SIN-1 500 μM, 30 min. How it is done: Cells were homogenized in 3× weight/volume of IP buffer (25 mM Hepes, pH 7.5, 150 mM NaCl, 1% NP-40, 10 mM MgCl2, 1 mM EDTA, 2% glycerol, supplemented with protease inhibitor). The homogenates were then centrifuged at 20,000 g at 4° C. for 20 min, the supernatant was collected, and the protein concentration was quantified by the Bio-Rad DC Protein Assay. To 1000 μg of total protein, 4 μg of antibody against PKG-1α was added; the volume was brought to 1 ml with IP buffer, and the mixture was incubated at 4° C. overnight. To precipitate the bound protein, 30 μl of protein G plus agarose suspension (EMD biosciences, Inc., San Diego, Calif.) was added, and the samples were incubated for 2 h at 4° C. To collect the bead-bound antibody, the samples were then centrifuged at 2000 g for 5 min at 4° C., the supernatant was removed, and the beads were washed 3× with 500 μl of IP buffer. To the samples, 30 μl of 2× Laemmli buffer was added, and the samples were boiled for 5 min and then resolved using 4-20% Tris-SDS-Hepes PAGE. The membrane was then probed for 3-nitrotyrosine (1:100 dilution), as described above. The IP efficiency was normalized by re-probing for PKG-1α (1:500).
To determine the role of tyrosine 247 and tyrosine 425 in mediating the nitration dependent inhibition of PKG-1α kinase activity, Y247F- and Y425F-PKG-1α mutants were generated and expressed in HEK-293T cells. HEK-293T cells were transiently transfected with expression plasmids containing WT-, Y247F-, or Y425F-PKG-1α for 48 h. […] Protein extracts were immunoprecipitated using an antibody raised against PKG-1α and the level of nitrated PKG-1α determined by probing the membranes with an antiserum raised against 3-NT. The blots were then stripped and re-probed for PKG-1α to normalize for the efficiency of the immunoprecipitation.
For orientation: A western blot detects proteins with antibodies after separation by electrophoresis.

The test system of assay [1] is pulmonary artery smooth muscle cells (PASMC). Put plainly: PASMC immunocytochemistry for SM22-α and PCNA. The conditions noted are these: SIN-1 500 μM, 48 h. Type of assay: cell-based, lamb. As to the method: Semi-confluent PASMC grown on a coverslip in a 6-well plate were transfected with a mammalian expression plasmid containing either a wild-type (WT)- or Y247F-PKG-1α cDNA. After 20 h, the cells were serum starved (1% FBS) for 4 h then exposed or not to SIN-1 (500 μM) for 48 h. The cells were washed with PBS, methanol fixed (5 min), and permeabilized in 0.1% PBS-Tween (20 min). The cells were then washed 3× with PBS and blocked for non-specific protein-protein interactions with 1% BSA in PBS (1 h). The antibodies, smooth muscle (SM) 22-α (5 μg/ml) or proliferating cell nuclear antigen (PCNA) (1 μg/ml) diluted in 1% BSA in PBS, were added and incubated overnight at 4° C. The cells were again washed 3× with PBS and incubated in secondary antibody (green): Alexa Fluor 488 goat anti-mouse IgG (H+L) (1/1000 dilution) for PCNA or Alexa Fluor 488 donkey anti-goat IgG (H+L) (1/1000 dilution) for SM22-α for 1 h in the dark. DAPI was used to stain the cell nuclei (blue) at a concentration of 0.5 μg/ml for 3 min. The cells were rinsed 3× with PBS, and the coverslips were mounted on the slides with ProLong Gold Antifade and analyzed with the use of a Nikon Eclipse TE 300 inverted fluorescent microscope with a 60× oil objective and a Hamamatsu digital camera.
To assess the effect of nitration on pulmonary arterial smooth muscle cell (PASMC) phenotype, PASMC were transiently transfected with expression plasmids containing WT-PKG-1α, Y247F-PKG-1α, or PDEST40 (as a control) for 20 h. Cells were then exposed or not to SIN-1 (500 μM, 48 h) and the effect on synthetic and contractile markers determined. The levels of myosin heavy chain (MYH, FIG. 3A), Calponin-1 (FIG. 3B), and Vimentin (FIG. 3C) were determined. The blots were then stripped and re-probed for β-actin to normalize for protein loading. PASMC were also subjected to immunohistochemistry using antibodies to SM22-α (5 μg/ml) and PCNA (1 μg/ml). Relevant secondary antibodies linked to Alexa Fluor 488 (green) were then applied. DAPI was also used to stain (blue) the cell nuclei.

For “3-morpholinosydnonimine N-ethylcarbamide [SIN-1]”, the “nitration of PKG-1α (3-NT/PKG-1α)” value is on record as “significantly increased” in the assay with PKG-1α (HEK-293T expressing WT-PKG-1α), “no significant increases” in the assay on PKG-1α (HEK-293T expressing Y247F-PKG-1α) and “no significant increases” in the assay with PKG-1α (HEK-293T expressing Y425F-PKG-1α). Moreover, the PCNA staining entry in assay [1] (WT-PKG-1α expressing PASMC) is given as “increased”. In assay [1] (WT-PKG-1α expressing PASMC), the SM-22α expression entry is given as “attenuated”. In addition, the “filamentous SM22-α expression and nuclear staining of PCNA” value in assay [1] (Y247F-PKG-1α expressing PASMC) was “unaffected”.

Values taken from patent US9551711B2, “Compositions and methods for detecting nitration of PKG-1α and methods of use thereof” (Augusta University Research Institute, Inc., priority 2013, dated 2017).
